Source: ChEMBL document CHEMBL1134618, “Synthesis and biological evaluation of sialylmimetics as rotavirus inhibitors” (J Med Chem, 2001)

What was measured:
Rotavirus [1] = test: Inhibitory activity against bovine NCDV Rotavirus strain; type: functional, organism-based
Rotavirus [2] = test: Inhibitory activity against human Wa Rotavirus strain; type: functional, organism-based

| IC50 (Rotavirus [1]) [mM] | IC50 (Rotavirus [2]) [mM] | Structure (SMILES) |
| --- | --- | --- |
| > 25 | > 25 | CCC(SC[C@@H]1O[C@@H](OC)[C@@H](O)[C@@H](O)[C@@H]1O)C(=O)O (stereo partly specified) |
| > 25 | > 25 | CO[C@@H]1O[C@@H](CSC(CCO)C(=O)O)[C@@H](O)[C@H](O)[C@@H]1O (stereo partly specified) |
| > 25 | > 25 | CO[C@@H]1O[C@@H](CSC(C(=O)O)c2ccccc2)[C@@H](O)[C@H](O)[C@@H]1O (stereo partly specified) |
| 25 | > 25 | CCC(SC[C@@H]1O[C@@H](OC)[C@@H](O)[C@@H](O)[C@H]1O)C(=O)O (stereo partly specified) |
| > 25 | > 25 | CO[C@@H]1O[C@@H](CSC(C(=O)O)c2ccccc2)[C@H](O)[C@H](O)[C@@H]1O (stereo partly specified) |
| > 25 | > 25 | CO[C@@H]1O[C@@H](CSC(CCO)C(=O)O)[C@H](O)[C@H](O)[C@@H]1O (stereo partly specified) |
|  | > 25 | COC1OC(CSC2(C(=O)O)CC(O)C(NC(C)=O)C([C@H](O)[C@H](O)CO)O2)C(O)C(O)C1O (stereo partly specified) |
| > 25 | > 25 | COC1OC(CSC(C)C(=O)O)C(O)C(O)C1O (stereo unspecified) |
| 6.25 | 6.25 | CCC(SC[C@@H]1O[C@@H](O[C@H]2[C@H](O)[C@H](O)[C@H](OC)O[C@H]2CO)[C@@H](O)[C@@H](O)[C@H]1O)C(=O)O (stereo partly specified) |
| 12.5 | 25 | CO[C@@H]1O[C@@H](CO)[C@@H](O[C@@H]2O[C@@H](CSC(C(=O)O)c3ccccc3)[C@H](O)[C@H](O)[C@@H]2O)[C@H](O)[C@@H]1O (stereo partly specified) |
| 12.5 | 6.25 | CO[C@@H]1O[C@@H](CO)[C@@H](O[C@@H]2O[C@@H](CSC(C)C(=O)O)[C@H](O)[C@H](O)[C@@H]2O)[C@H](O)[C@@H]1O (stereo partly specified) |
